In publication PMC4536133 (Antiviral research, 2015):

Assays:
[1] = system: HSV-1; assay: Plaque assay of supernatant of HSV-1 infected Vero cells; type: cell-based, herpes simplex virus type 1 (KOS) in Vero cells
[2] = system: HSV-1; assay: Plaque assay of supernatant of reactivated iPSC-neurons titrated on Vero cells; type: cell-based, herpes simplex virus type 1 (KOS) in human iPSC-neurons; conditions: 5BVdU+IFN-α then drug 48h, NaB reactivation
[3] = system: HSV-1; assay: qPCR for HSV-1 DNA copy number in iPSC-neurons; type: cell-based, herpes simplex virus type 1 (KOS) in human iPSC-neurons; conditions: acutely infected iPSC-neurons, 24hpi, 50 μM; untreated 3,461,970
[4] = system: HSV-1; assay: Reactivation of quiescent HSV-1 infection in iPSC-neurons, flow cytometry; type: cell-based, herpes simplex virus type 1 (KOS) in human iPSC-neurons; conditions: compared to vehicle
[5] = system: HSV-1; assay: FISH analysis of HSV-1 viral DNA in infected cells; type: cell-based, herpes simplex virus type 1; conditions: HSV-1 infected cells
[6] = system: HSV-1 ICP0 and ICP4; assay: Immunocytochemistry of HSV-1 immediate early genes ICP0 and ICP4; type: cell-based, herpes simplex virus type 1; conditions: infected cells
[7] = system: VZV; assay: VZV infection of ARPE-19 cells, luciferase activity; type: cell-based; conditions: PAA

## Nc1nc2c(ncn2COCCO)c(=O)[nH]1 [ACV, Acyclovir]
[1]; 50 μM
  infectious particles in supernatant of treated infected cultures (plaque assay): undetectable
[2]
  infectious viral particles in supernatant after reactivation: no detectable infectious viral particles
[3]
  number of copies of viral DNA in 5 ng of total DNA: 483 copies
[4]
  mean intensity of fluorescence (MFI) after reactivation: lowered
[5]
  viral DNA copy number by FISH: substantial reduction
[6]
  expression of HSV-1 immediate early genes ICP0 and ICP4: markedly reduced expression

## CO/C1=C\C(C)=C\[C@@H](C)[C@@H](O)[C@@H](C)C/C(C)=C/C=C/[C@H](OC)[C@@H]([C@@H](C)[C@@H](O)[C@H](C)[C@@]2(O)C[C@@H](O)[C@H](C)[C@@H](C(C)C)O2)OC1=O [BFLA, bafilomycin A1]
[1]; BFLA 0.1 μM
  infectious particles in supernatant of treated infected cultures (plaque assay): undetectable

## CCN(CC)CCCC(C)Nc1ccnc2cc(Cl)ccc12 (centres unmarked) [CQ, chloroquine]
[1]; 50 μM
  infectious particles in supernatant of treated infected cultures (plaque assay): undetectable

## O=C(O)CP(=O)(O)O [PAA, phosphonoacetic acid]
[7]
  inhibition of VZV infection: effectively inhibited
[5]
  viral DNA copy number by FISH: substantial reduction
[6]
  expression of HSV-1 immediate early genes ICP0 and ICP4: markedly reduced expression
